# Assay results from patent publication US4738971A, “N-aryl-1,2-dihydro-4-substituted-1-alkyl-2-oxo-quinoline-3-carboxamides” (priority 1981, dated 1988).
# Structures can show the parent of a compound that is named as a salt.
# Tests used:
# [1] = test system: delayed hypersensitivity reaction (pertussis vaccine pleurisy); assay: pertussis vaccine pleurisy test in rats; assay type: in vivo, rat (male Sprague-Dawley); details: 10 mg/kg p.o.; for change in vivo at 10 mg/kg: Rattus norvegicus, po, 48 h, once daily day 10 to day 13, vs control, preliminary, read-out: Enhancement of the delayed hypersensitivity reaction assessed by the exudate vol.
# Excerpt: A useful test for the evaluation of the effect of chemical compounds on the immune system is the pertussis vaccine pleurisy test in rats. Compounds which enhance the response in this delayed hypersensitivity reaction are considered to stimulate cell-mediated immunity (4).
# This example illustrates the effect of the compounds of the general formula I in the pertussis vaccine pleurisy test.
# Pertussis vaccine pleurisy is a useful test for the evaluation of the effect of chemical compounds on the immune system. Compounds which enhance the response in this delayed hypersensitivity reaction are considered to stimulate cell-mediated immunity.
# A modification of a method described in (4) was used. Male Sprague-Dawley rats weighing 250-275 g were used. At least ten animals were used in each group.
# Equal volumes of Freund's incomplete adjuvant and a suspension of heat killed Bordetella pertussis organisms were mixed. To sensitize animals, day 0, 0.2 ml of a mixture containing 0.036×10^10 organisms/ml was injected into the dorsal surface of one hind paw and one forepaw.
# The animals were challenged on day 12 with 0.1 ml of a mixture containing 0.25×10^10 organisms/ml that was injected intrapleurally. 48 hours after challenge, day 14, the volume of the exudate in the pleural cavity was measured.
# The substances suspended in aqueous methocel solution 10 ml/kg were given intragastrically once daily from day 10 to day 13. The control groups were given methocel solution 10 ml/kg.
# The effect of the substances was assessed by the exudate volume expressed in percent after comparison with the control groups.
# [2] = test system: carrageenan-induced edema; assay: carrageenan edema test in rats; assay type: in vivo, rat (female Sprague-Dawley); details: for change in vivo at 80 mg/kg: Rattus norvegicus, po, 80 mg/kg p.o., 30 min before carrageenan, edema weight 3 h after, vs control, preliminary, read-out: Potentiation of the carrageenan edema, %; for significant potentiation of the carrageenan edema: dose within the range 10-160 mg/kg p.o.
# Excerpt: Another test, in which the effect of a drug corresponds to the effects obtained in the tests mentioned above, and which can therefore also be used, is the well-established carrageenan edema test in rats (5). Comparative evaluation of compounds of the present invention in the three tests mentioned has shown that compounds which increase the extent of the delayed hypersensitivity reaction in the pertussis vaccine pleurisy test and in the adjuvant arthritis test also increase the extent of carrageenan-induced edema in the carrageenan edema test, thus providing a further tool for the determination of enhancement of cell-mediated immunity.
# This example illustrates the effect of the compounds of the general formula I in the carrageenan edema test in rats.
# A modification of a method described in (5) was used. Female Sprague-Dawleyrats weighing 110-120 g was used. At least 10 animals were used in each experimental group. Foot edema was induced by injecting carrageenan in 0.9% NaCl into the plantar surface of the right hind paw of the rats.
# The substances suspended in aqueous methocel solution 10 ml/kg were administered intragastrically 30 minutes before the injection of carrageenan. The control groups were given methocel solution 10 ml/kg.
# Three hours after carrageenan injection the animals were killed. The hind feet were cut off and weighed. The difference in weight of the injected right paw and the uninjected left paw was called edema weight.
# The effect of the substances was assessed by the edema weight expressed in percent after comparison with the control groups.
SMILES,change in vivo at 10 mg/kg [1] [%],change in vivo at 80 mg/kg [2] [%],significant enhancing effect in the pertussis vaccine pleurisy test [1],significant potentiation of the carrageenan edema [2]
"CN(C)c1ccc2c(c1)c(O)c(C(=O)Nc1ccccc1)c(=O)n2C [1:5, N-phenyl-1,2-dihydro-6-dimethylamino-4-hydroxy-1-methyl-2-oxo-quinoline-3-carboxamide]",47,28,–,–
"Cn1c(=O)c(C(=O)Nc2ccccc2Cl)c(O)c2ccccc21 [1:8, N-/2-chlorophenyl/-1,2-dihydro-4-hydroxy-1-methyl-2-oxo-quinoline-3-carboxamide]",27,21,–,–
"CC(=O)Nc1ccc(NC(=O)c2c(O)c3ccccc3n(C)c2=O)cc1 [1:41, N-(4-acetylaminophenyl)-1,2-dihydro-4-hydroxy-1-methyl-2-oxo-quinoline-3-carboxamide]",–,–,significant enhancing effect,potentiate significantly
"COc1c(C(=O)Nc2ccc(N(C)C)cc2)c(=O)n(C)c2ccccc12 [6:3, N-(4-dimethylaminophenyl)-1,2-dihydro-4-methoxy-1-methyl-2-oxo-quinoline-3-carboxamide]",–,32,–,–
"Cn1c(=O)c(C(=O)Nc2ccccn2)c(O)c2ccccc21 [7:2, N-/2-pyridyl/-1,2-dihydro-4-hydroxy-1-methyl-2-oxo-quinoline-3-carboxamide]",–,44,–,–
"Cc1csc(NC(=O)c2c(O)c3ccccc3n(C)c2=O)n1 [7:3, N-/2-(4-methyl-thiazolyl)/-1,2-dihydro-4-hydroxy-1-methyl-2-oxo-quinoline-3-carboxamide]",–,47,–,–
"CCCn1c(=O)c(C(=O)Nc2ccccn2)c(O)c2ccccc21 [7:10, N-/2-pyridyl/-1,2-dihydro-4-hydroxy-2-oxo-1-n-propyl-quinoline-3-carboxamide]",41,24,–,–
"Cn1c(=O)c(C(=O)Nc2ccc(N)cc2)c(O)c2ccccc21 [8:1, N-(4-aminophenyl)-1,2-dihydro-4-hydroxy-1-methyl-2-oxo-quinoline-3-carboxamide]",–,–,–,potentiate significantly
"Cn1c(=O)c(C(=O)Nc2ccccc2)c(N)c2ccccc21 [10:1, N-phenyl-4-amino-1,2-dihydro-1-methyl-2-oxo-quinoline-3-carboxamide]",–,36,–,–
"Cn1c(=N)c(C(=O)Nc2ccccc2)c(O)c2ccccc21 [11:1, N-phenyl-1,2-dihydro-4-hydroxy-2-imino-1-methyl-quinoline-3-carboxamide]",–,46,–,–
"O=C(Nc1ccc(N2CCCC2)cc1)c1c(O)c2cccc3c2n(c1=O)CC3 [12:7, N-(4-pyrrolidinophenyl)-1,2-dihydro-1,8-ethylene-4-hydroxy-2-oxo-quinoline-3-carboxamide, hydrochloride]",–,–,significant enhancing effect,potentiate significantly
"CN(C)c1ccc(NC(=O)c2c(O)c3cccc4c3n(c2=O)CC4)cc1 [12:8, N-(4-dimethylaminophenyl)-1,2-dihydro-1,8-ethylene-4-hydroxy-2-oxo-quinoline-3-carboxamide]",29,51,–,–
"Cc1csc(NC(=O)c2c(O)c3cc(N(C)C)cc4c3n(c2=O)CCC4)n1 [14:7, N-(4-methyl-2-thiazolyl)-1,2-dihydro-6-dimethylamino-4-hydroxy-2-oxo-1,8-trimethylene-quinoline-3-carboxamide]",–,–,–,potentiate significantly
"O=C(Nc1cnccn1)c1c(O)c2cccc3c2n(c1=O)CC3 [14:9, N-pyrazinyl-1,2-dihydro-1,8-ethylene-4-hydroxy-2-oxo-quinoline-3-carboxamide]",–,21,–,–
"O=C(Nc1cccnn1)c1c(O)c2cc(O)cc3c2n(c1=O)CC3 [14:12, N-(3-pyridazinyl)-1,2-dihydro-4,6-dihydroxy-1,8-ethylene-2-oxo-quinoline-3-carboxamide]",–,–,–,potentiate significantly
"COc1c(C(=O)Nc2nccs2)c(=O)n2c3c(cccc13)CC2 [16:1, N-(2-thiazolyl)-1,2-dihydro-1,8-ethylene-4-methoxy-2-oxo-quinoline-3-carboxamide]",–,–,–,potentiate significantly
"COc1c(C(=O)Nc2nccs2)c(=O)n(C)c2ccccc12 [17:1, N-(2-thiazolyl)-1,2-dihydro-4-methoxy-1-methyl-2-oxo-quinoline-3-carboxamide]",–,–,–,potentiate significantly
"COc1c(C(=O)Nc2ccccc2)c(=O)n2c3c(cccc13)CC2 [18:1, N-phenyl-1,2-dihydro-1,8-ethylene-4-methoxy-2-oxo-quinoline-3-carboxamide]",–,–,–,potentiate significantly
"COc1c(C(=O)Nc2ccccc2)c(=O)n2c3c(cccc13)CCC2 [18:2, N-phenyl-1,2-dihydro-4-methoxy-2-oxo-1,8-trimethylene-quinoline-3-carboxamide]",–,–,–,potentiate significantly
"CCOc1c(C(=O)Nc2ccc(N(C)C)cc2)c(=O)n2c3c(cccc13)CC2 [18:3, N-(4-dimethylaminophenyl)-1,2-dihydro-4-ethoxy-1,8-ethylene-2-oxo-quinoline-3-carboxamide]",–,–,–,potentiate significantly
"COc1ccc2c(c1)c(O)c(C(=O)N(C)c1ccccc1)c(=O)n2C [20:5, N-methyl-N-phenyl-1,2-dihydro-4-hydroxy-6-methoxy-1-methyl-2-oxo-quinoline-3-carboxamide]",–,–,significant enhancing effect,potentiate significantly
"CN(C(=O)c1c(O)c2ccccc2n(C)c1=O)c1ccc(N2CCCCC2)cc1 [20:9, N-(4-piperidinophenyl)-N-methyl-1,2-dihydro-4-hydroxy-1-methyl-2-oxo-quinoline-3-carboxamide]",–,–,significant enhancing effect,potentiate significantly
"CCn1c(=O)c(C(=O)N(C)c2ccccc2)c(O)c2ccccc21 [20:10, N-methyl-N-phenyl-1,2-dihydro-1-ethyl-4-hydroxy-2-oxo-quinoline-3-carboxamide]",–,–,significant enhancing effect,potentiate significantly
"CN(C(=O)c1c(O)c2c(F)cccc2n(C)c1=O)c1ccccc1 [20:16, N-methyl-N-phenyl-1,2-dihydro-5-fluoro-4-hydroxy-1-methyl-2-oxo-quinoline-3-carboxamide]",–,–,significant enhancing effect,potentiate significantly
"CN(C(=O)c1c(O)c2ccccc2n(C)c1=O)c1ccc2c(c1)OCO2 [20:29, N-methyl-N-(3,4-methylenedioxyphenyl)-1,2-dihydro-4-hydroxy-1-methyl-2-oxo-quinoline-3-carboxamide]",–,–,significant enhancing effect,potentiate significantly
"COc1ccc(-n2c(=O)c(C(=O)N(C)c3ccccc3)c(O)c3ccccc32)cc1 [20:34, N-methyl-N-phenyl-1-(4-methoxyphenyl)-1,2-dihydro-4-hydroxy-2-oxo-quinoline-3-carboxamide]",–,–,significant enhancing effect,potentiate significantly
